# Laboratory results as given in patent US8067611B2, “Substituted 1-(thiazolyl)-and 1-(isothiazolyl)pyrazol-4-ylacetic acids, processes for their preparation and their use as herbicides and plant growth regulators” (Bayer CropScience AG, priority 2008, dated 2011).
# Key:
# harmful plants = assay: Pre-emergence herbicidal effect, greenhouse pot test; assay type: in vivo; conditions: application rate of 1 kg or less of active substance per hectare, scored after about 3 weeks
# Excerpt: Seeds of monocotyledonous or dicotyledonous weed plants or crop plants are planted in wood-fiber pots in sandy loam and covered with soil. The compounds (I) according to the invention, formulated in the form of wettable powders (WP), are then applied as aqueous suspension or emulsion at a water application rate of 600 I/ha (converted) with the addition of 0.2% of wetting agent to the surface of the covering soil.
# Following the treatment, the pots are placed in a greenhouse and kept under good growth conditions for the test plants. After about 3 weeks, the effect of the preparations is scored visually in comparison with untreated controls (herbicidal effect in percent (%): 100% effect=plants have died, 0% effect=as control plants).
# [1] = system: weed-grasses and broad-leaved weeds; assay: Post-emergence herbicidal effect, greenhouse pot test; assay type: in vivo; conditions: application rate of 1 kg and less of active substance per hectare, scored after 3 weeks
# Experimental: Seeds of monocotyledonous or dicotyledonous weed plants or crop plants are planted in wood-fiber pots in sandy loam, covered with soil and grown in a greenhouse under good growth conditions. 2 to 3 weeks after sowing, the test plants are treated in the one-leaf stage. The compounds according to the invention, formulated in the form of wettable powders (WP), are then sprayed onto the green plant parts as aqueous suspension or emulsion at a water application rate of 600 I/ha (converted) with the addition of 0.2% of wetting agent. After 3 weeks' standing time of the test plants in the greenhouse under optimum growth conditions, the effect of the preparations is scored visually in comparison with untreated controls (herbicidal effect in percent (%): 100% effect=plants have died, 0% effect=as control plants).
SMILES,herbicidal pre-emergence activity against a number of harmful plants (harmful plants),post-emergence activity against a broad spectrum of weed-grasses and broad-leaved weeds [1]
COC(=O)Cc1c(C)nn(-c2cncs2)c1-c1ccc(Br)s1 [Compound 8-69],good herbicidal pre-emergence activity,good post-emergence activity
COC(=O)Cc1c(C)nn(-c2cncs2)c1-c1nc2ccccc2s1 [Compound 8-219],good herbicidal pre-emergence activity,good post-emergence activity
COC(=O)Cc1c(C)nn(-c2cncs2)c1-c1ccc(Cl)cn1 [Compound 8-118],good herbicidal pre-emergence activity,good post-emergence activity
COC(=O)Cc1c(C)nn(-c2cncs2)c1-c1ccc(Br)cn1 [Compound 8-121],good herbicidal pre-emergence activity,good post-emergence activity
COC(=O)Cc1c(C)nn(-c2ccns2)c1-c1ccc(Br)cn1 [Compound 2-120],good herbicidal pre-emergence activity,good post-emergence activity
COC(=O)Cc1c(C)nn(-c2cnsc2)c1-c1ccc(F)cc1 [Compound 5-131],good herbicidal pre-emergence activity,good post-emergence activity
COC(=O)Cc1c(C)nn(-c2cnsc2)c1-c1ccc(Br)cn1 [Compound 5-119],good herbicidal pre-emergence activity,good post-emergence activity
Cc1nn(-c2ccns2)c(-c2ccc(Br)cn2)c1CC(=O)O [Compound 1-119],good herbicidal pre-emergence activity,good post-emergence activity
Cc1nn(-c2ccns2)c(-c2ccc(Br)s2)c1CC(=O)O [Compound 1-67],good herbicidal pre-emergence activity,good post-emergence activity
COC(=O)Cc1c(C)nn(-c2ccns2)c1-c1ccc(Cl)cc1 [Compound 2-28],good herbicidal pre-emergence activity,good post-emergence activity
COC(=O)Cc1c(C)nn(-c2cncs2)c1-c1ccc(C)cc1 [Compound 8-16],good herbicidal pre-emergence activity,good post-emergence activity
COC(=O)Cc1c(C)nn(-c2cncs2)c1-c1ccc(C(F)(F)F)cc1 [Compound 8-32],good herbicidal pre-emergence activity,good post-emergence activity
COC(=O)Cc1c(C)nn(-c2cnsc2)c1-c1ccc2ccccc2n1 [Compound 5-239],good herbicidal pre-emergence activity,good post-emergence activity
COC(=O)Cc1c(C)nn(-c2ccns2)c1-c1ccccc1 [Compound 2-2],good herbicidal pre-emergence activity,good post-emergence activity
COC(=O)Cc1c(C)nn(-c2ccns2)c1-c1ccccn1 [Compound 2-116],good herbicidal pre-emergence activity,good post-emergence activity
COC(=O)Cc1c(C)nn(-c2cncs2)c1-c1ccc2ccccc2n1 [Compound 8-239],good herbicidal pre-emergence activity,good post-emergence activity
COC(=O)Cc1c(C)nn(-c2cncs2)c1-c1cc2ccccc2cn1 [Compound 8-240],good herbicidal pre-emergence activity,good post-emergence activity
COC(=O)Cc1c(C)nn(-c2cncs2)c1-c1ccccc1 [Compound 8-2],good herbicidal pre-emergence activity,good post-emergence activity

SMILES,herbicidal pre-emergence activity against a number of harmful plants (harmful plants),post-emergence activity against a broad spectrum of weed-grasses and broad-leaved weeds [1]
Cc1nn(-c2cncs2)c(-c2ccc(Cl)cc2)c1CC(=O)OCC1CC1 [Compound 9-122],good herbicidal pre-emergence activity,good post-emergence activity
COC(=O)Cc1c(C)nn(-c2cnsc2)c1-c1ccccn1 [Compound 5-115],good herbicidal pre-emergence activity,good post-emergence activity
"Cc1nn(-c2cncs2)c(-c2ccc(Cl)cc2)c1CC(=O)O [Compound 7-29, [5-(4-Chlorophenyl)-3-methyl-1-(1,3-thiazol-5-yl)-1H-pyrazol-4-yl]acetic acid]",good herbicidal pre-emergence activity,good post-emergence activity
COC(=O)Cc1c(C)nn(-c2cncs2)c1-c1sccc1C [Compound 8-64],good herbicidal pre-emergence activity,good post-emergence activity
COC(=O)Cc1c(C)nn(-c2ccns2)c1-c1ccc(Br)s1 [Compound 2-68],good herbicidal pre-emergence activity,good post-emergence activity
COC(=O)Cc1c(C)nn(-c2cncs2)c1-c1ccco1 [Compound 8-4],good herbicidal pre-emergence activity,good post-emergence activity
"CCOC(=O)c1ncsc1-n1nc(C)c(CC(=O)OC)c1-c1ccccn1 [Compound 8-241, Ethyl 5-[4-(2-methoxy-2-oxoethyl)-3-methyl-5-(pyridin-2-yl)-1H-pyrazol-1-yl]-1,3-thiazole-4-carboxylate]",good herbicidal pre-emergence activity,good post-emergence activity
CCOC(=O)Cc1c(C)nn(-c2cncs2)c1-c1ccc(Cl)cc1 [Compound 9-4],good herbicidal pre-emergence activity,good post-emergence activity
COC(=O)Cc1c(C)nn(-c2cncs2)c1-c1ncc(Br)cn1 [Compound 8-230],good herbicidal pre-emergence activity,good post-emergence activity
"COC(=O)Cc1c(C)nn(-c2cncs2)c1-c1ccc(Cl)cc1 [Compound 8-28, methyl[5-(4-chlorophenyl)-3-methyl-1-(1,3-thiazol-5-yl)-1H-pyrazol-4-yl]acetate]",good herbicidal pre-emergence activity,good post-emergence activity
COC(=O)Cc1c(C)nn(-c2cncs2)c1-c1ncc(Cl)cn1 [Compound 8-229],good herbicidal pre-emergence activity,good post-emergence activity
COC(=O)Cc1c(C)nn(-c2cnsc2)c1-c1ccccc1 [Compound 5-2],good herbicidal pre-emergence activity,good post-emergence activity
COC(=O)Cc1c(C)nn(-c2cncs2)c1-c1ccccn1 [Compound 8-117],good herbicidal pre-emergence activity,good post-emergence activity
COC(=O)Cc1c(C)nn(-c2cncs2)c1-c1ccc(F)cc1 [Compound 8-133],good herbicidal pre-emergence activity,good post-emergence activity
COC(=O)Cc1c(C)nn(-c2cnsc2)c1-c1ccc(Cl)cc1 [Compound 5-28],good herbicidal pre-emergence activity,good post-emergence activity
COC(=O)Cc1c(C)nn(-c2cnsc2)c1-c1cc2ccccc2cn1 [Compound 5-240],good herbicidal pre-emergence activity,good post-emergence activity
COC(=O)Cc1c(C)nn(-c2cnsc2)c1-c1ncc(Br)cn1 [Compound 5-227],good herbicidal pre-emergence activity,good post-emergence activity
